Measurements as given in ChEMBL document CHEMBL6121069, “A Medicinal Chemistry Perspective on Protein Tyrosine Phosphatase Nonreceptor Type 2 in Tumor Immunology” (J Med Chem, 2025).

Tests used:
[1] = molecular target: Protein cereblon/Tyrosine-protein phosphatase non-receptor type 2 (Homo sapiens, UniProt P17706+Q96SW2); settings: hek293t
Description: PROTAC activity at PTPN2/CRBN in HEK293T cells assessed as induction of PTPN2 degradation incubated for 24 hrs by Nan-glo HiBiT lytic assay

[2] = molecular target: T1, Tyrosine-protein phosphatase non-receptor type 2 (Homo sapiens, UniProt P17706)
T1 sequence (P17706 whole entry): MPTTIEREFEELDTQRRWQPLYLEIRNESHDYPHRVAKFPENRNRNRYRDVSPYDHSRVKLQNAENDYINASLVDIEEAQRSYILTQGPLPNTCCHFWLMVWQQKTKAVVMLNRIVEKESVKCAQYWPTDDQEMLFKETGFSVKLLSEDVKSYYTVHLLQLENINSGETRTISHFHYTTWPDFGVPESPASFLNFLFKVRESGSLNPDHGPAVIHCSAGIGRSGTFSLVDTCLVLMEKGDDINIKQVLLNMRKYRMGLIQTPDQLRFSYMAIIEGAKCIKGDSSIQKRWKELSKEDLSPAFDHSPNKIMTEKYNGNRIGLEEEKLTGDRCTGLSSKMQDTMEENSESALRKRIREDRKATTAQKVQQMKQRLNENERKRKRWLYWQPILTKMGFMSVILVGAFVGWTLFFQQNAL
Description: Binding affinity to PTPN2 (unknown origin) assessed as dissociation constant by SPR assay

B16-F10 [3] = experiment: animal or person; settings: Mus musculus, B16-F10, 360 h, read-out: TGI
[4] = molecular target: T2, Tyrosine-protein phosphatase non-receptor type 1 (Homo sapiens, UniProt P18031)
T2 sequence (P18031 whole entry): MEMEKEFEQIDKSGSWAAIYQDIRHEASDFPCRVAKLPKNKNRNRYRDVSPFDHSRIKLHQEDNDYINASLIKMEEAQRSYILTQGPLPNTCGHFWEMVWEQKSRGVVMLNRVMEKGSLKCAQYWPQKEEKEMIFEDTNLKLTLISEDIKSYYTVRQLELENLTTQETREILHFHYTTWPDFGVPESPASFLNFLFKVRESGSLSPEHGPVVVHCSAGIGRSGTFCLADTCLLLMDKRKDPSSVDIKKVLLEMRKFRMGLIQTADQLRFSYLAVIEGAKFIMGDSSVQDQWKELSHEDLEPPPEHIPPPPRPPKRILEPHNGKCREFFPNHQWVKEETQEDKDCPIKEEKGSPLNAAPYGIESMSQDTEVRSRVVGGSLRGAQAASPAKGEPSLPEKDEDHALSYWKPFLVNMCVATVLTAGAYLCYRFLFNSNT
Description: Inhibition of PTP1B (unknown origin) by mobility shift assay

B16-F10 [5] = experiment: cells; settings: Mus musculus
Description: Antiproliferative activity against mouse B16-F10 cells

[6] = molecular target: T1, Tyrosine-protein phosphatase non-receptor type 2; remark: listed apart in the source
Description: Inhibition of PTPN2 (unknown origin) by mobility shift assay

[7] = molecular target: T2, Tyrosine-protein phosphatase non-receptor type 1; remark: listed apart in the source
Description: Inhibition of PTP1B (unknown origin)

[8] = molecular target: T2, Tyrosine-protein phosphatase non-receptor type 1; remark: listed apart in the source
Description: Inhibition of C-terminal recombinant PTP1B (1 to 405 residues) (unknown origin) using pNPP as substrate incubated for 30 mins by fluorescence based analysis

[9] = molecular target: T1, Tyrosine-protein phosphatase non-receptor type 2; remark: listed apart in the source
Description: Inhibition of wild type FLAG-tagged PTPN2 (unknown origin) extracted from Escherichia coli BL21 (DE3) by micro-plate reader assay

cells = settings: Homo sapiens, B16
Description: Inhibition of PTPN2/PTPN1 (unknown origin) in mouse B16 cells assessed as inhibition of IFNgamma-mediated STAT1 phosphorylation

[10] = molecular target: T1, Tyrosine-protein phosphatase non-receptor type 2; remark: listed apart in the source
Description: Binding affinity to PTPN2 (unknown origin) assessed as inhibition constant

[11] = molecular target: T2, Tyrosine-protein phosphatase non-receptor type 1; remark: listed apart in the source
Description: Binding affinity to PTP1B (unknown origin) using pNPP as substrate incubated for 60 mins by fluorescence based analysis

[12] = molecular target: T1, Tyrosine-protein phosphatase non-receptor type 2; remark: listed apart in the source
Description: Inhibition of PTPN2 (unknown origin) using DiFMUP as substrate pre-incubated for 15 mins and measured for 30 mins by fluorescence based analysis

[13] = molecular target: T1, Tyrosine-protein phosphatase non-receptor type 2; remark: listed apart in the source
Description: Inhibition of PTPN2 (unknown origin) using pNPP as substrate measured for 60 mins by fluorescence based analysis

[14] = molecular target: T2, Tyrosine-protein phosphatase non-receptor type 1; remark: listed apart in the source
Description: Binding affinity to PTP1B (unknown origin) assessed as inhibition constant

Protein cereblon/Tyrosine-protein phosphatase non-receptor type 2, sequence (Q96SW2 whole entry, one chain of several): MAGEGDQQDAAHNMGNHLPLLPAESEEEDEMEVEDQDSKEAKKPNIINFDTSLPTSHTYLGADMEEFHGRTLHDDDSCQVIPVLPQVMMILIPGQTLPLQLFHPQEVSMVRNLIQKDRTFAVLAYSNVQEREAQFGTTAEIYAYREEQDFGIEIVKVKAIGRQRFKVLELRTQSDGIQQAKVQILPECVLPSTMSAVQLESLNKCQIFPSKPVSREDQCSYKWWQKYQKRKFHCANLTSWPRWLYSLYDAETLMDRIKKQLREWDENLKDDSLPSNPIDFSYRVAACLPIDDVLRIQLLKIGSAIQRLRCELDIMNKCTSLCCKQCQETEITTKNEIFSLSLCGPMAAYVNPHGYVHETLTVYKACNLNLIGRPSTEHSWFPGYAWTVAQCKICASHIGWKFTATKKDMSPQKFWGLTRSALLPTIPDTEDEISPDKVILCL

Cn1c(=O)n(C2CCC(=O)NC2=O)c2ccc(C3CCN(C(=O)Nc4cccc(CS(=O)(=O)N5CC[C@H](Nc6cccc(-c7sc(C(=O)O)c(OCC(=O)O)c7Cl)c6)CC5(C)C)c4)CC3)cc21 (stereo partly drawn)
DC50 [1]: 44 nM | Kd [2]: 52 nM

CC1(C)C[C@@H](Nc2cccc(-c3sc(C(=O)O)c(OCC(=O)O)c3Cl)c2)CCN1S(=O)(=O)Cc1cccc(NC(=O)N2CCC(c3ccc4c5c(cccc35)C(=O)N4[C@H]3CCC(=O)NC3=O)CC2)c1
DC50 [1]: 44 nM | inhibition in vivo at 10 mg/kg (B16-F10 [3]): 98%

CC(C)CCN[C@H]1CCc2cc(O)c(N3CC(=O)NS3(=O)=O)c(F)c2C1
IC50 [4]: 10 nM | IC50 (B16-F10 [5]): 1000 nM | IC50 [6]: 10 nM

C=C(C)[C@@H]1CC[C@@H](C)[C@@H]2CCC(C)=C[C@@H]21
IC50 [7]: 27000 nM | IC50 [8]: 7700 nM

CC(C)(C)C(=O)Nc1ccc2c(c1)C(=O)C(=O)c1ccccc1-2
IC50 [9]: 950 nM

CC(C)CCN[C@@H]1CCc2cc(O)c(N3CC(=O)NS3(=O)=O)c(F)c2C1 [OSUNPROTAFIB]
EC50 (cells): 180 nM | IC50 (B16-F10 [5]): 64 nM | IC50 [6]: 2.8 nM

CCc1ccc(C(=O)NCCCC[C@H](NC(=O)[C@H](Cc2ccc(C(F)(F)P(=O)(O)O)cc2)NC(=O)[C@@H](CC(=O)COC2CC(C)CCC2C(C)C)Cc2ccccc2)C(N)=O)cc1 (stereo partly drawn)
Ki [10]: 4.3 nM | Ki [11]: 34 nM | IC50 [12]: 9.2 nM | IC50 [13]: 9.2 nM | Ki [14]: 34 nM
